From patent US6214841A, “Antithrombotic compound” (Eli Lilly and Company, priority 1999, dated 2001) come the findings set out here.

The structures appear in SMILES notation.

Assay [1] has as its target human thrombin. The experiment in a line: Inhibition of thrombin amidase activity, chromogenic substrate (Kass). Format: biochemical. The following applies: average of 3 assays; read-out: Kass, inhibitor of thrombin (converted). As for the experimental part:
For example, thrombin hydrolyzes N-benzoyl-L-phenylalanyl-L-valyl-L-arginyl-p-nitroanilide, N-benzoyl-L-Phe-L-Val-L-Arg-p-nitroanilide.
The assay is carried out by mixing 50 μL buffer (0.03M Tris, 0.15M NaCl, pH 7.4) with 25 μL of human thrombin solution (purified human thrombin, Enzyme Research Laboratories, South Bend, Indiana, at 8 NIH units/mL) and 25 μL of test compound in a solvent (50% aqueous methanol (v:v)). Then 150 μL of an aqueous solution of the chromogenic substate (at 0.25 mg/mL) are added and the rates of hydrolysis of the substrate are measured by monitoring the reactions at 405 nm for the release of p-nitroaniline. Standard curves are constructed by plotting free thrombin concentration against hydrolysis rate. The hydrolysis rates observed with test compounds are then converted to "free thrombin" values in the respective assays by use of the standard curves. The bound thrombin (bound to test compound) is calculated by subtracting the amount of free thrombin observed in each assay from the known initial amount of thrombin used in the assay. The amount of free inhibitor in each assay is calculated by subtracting the number of moles of bound thrombin from the number of moles of added inhibitor (test compound). […]
Kass is calculated for a range of concentrations of test compounds and the mean value reported in units of liter per mole.

Assay [2] addresses factor Xa. The experiment in a line: Inhibition of factor Xa amidase activity, chromogenic substrate (Kass). The assay is classed as biochemical, human. The following applies: average of 3 assays; read-out: Kass, inhibitor of factor Xa (converted).
The test system of assay [3] is rabbit AV shunt model. The experiment in a line: Arterio-venous (AV) shunt model in the rabbit. Format: in vivo. The following applies: i.v. infusion. The text has this:
Arterio-Venous (AV) Shunt Model in the Rabbit
Efficacy and potency of a compound are studied in a model of thrombosis in the anesthetized rabbit in which blood is shunted from the carotid artery through tubing to the left jugular vein. The shunt houses a thread upon which thrombotic material is deposited and is quantified in the presence and absence of a test compound. Specifically, the left jugular vein and right carotid artery are cannulated (PE 200 tubing, 22 cm). The tip of the arterial tubing is advanced approximately 1 cm and the tip of the venous tubing is advanced approximately 1 cm. The arterial and venous shunt segments are friction fitted into a center section of larger tubing (PE 260, 6 cm) with 4 strands of cotton thread (5.5 cm each), knotted together with a single knot at the end, in the lumen. Blood is circulated through the shunt for 15 min. The arterial and venous segments are clamped, the center section is detached, held vertically and the thread is carefully removed and weighed. The weight of a wet thread (38 mg, average of 10-4-stranded identical lengths) is subtracted from the total weight of the thread and thrombus. A drug is infused through a second catheter in the right jugular vein (2 cm inside vessel) starting 15 min before and throughout the 15 min period of blood circulation through the shunt. […]

`N=C(N)NCCCC(NC(=O)[C@@H]1CCCN1C(=O)[C@@H]1NCC[C@H]2CCCC[C@H]21)C(=O)c1nc2ccccc2s1` (mixture of isomers) [DL-Arg-Ia, (1R,4aR,8aR)-Perhydroisoquinolin-1-ylcarbonyl-N-[(1RS)-4-[(aminoiminomethyl)amino]-1-(benzothiazol-2-ylcarbonyl)-butyl]-L-prolinamide. 1.5 H2 SO4]: the results for the Kd in assay [1] and in assay [2] were 2.84 nM and 3.32 nM, respectively. Further, the “ED50% (infusion dose to reduce thrombus weight by 50%)” value in assay [3] was 0.008 mg/kg/h.
